Test results taken from publication PMC7206119, “RIP1 inhibition blocks inflammatory diseases but not tumor growth or metastases” (Cell Death and Differentiation, 2019).

Columns and labels:
Test in all cases: biochemical
Set-up in all cases: DiscoverX kinase panel, active-site competition binding (KINOMEscan type), percent of control at one concentration
Conditions in all cases: competition binding, percent of control
CSNK2A1 = CSNK2A1 (Homo sapiens, UniProt P68400)
TNIK = TNIK (Homo sapiens, UniProt Q9UKE5)
DYRK2 = DYRK2 (Homo sapiens, UniProt Q92630)
ABL1-phosphorylated = target: T1, ABL1-phosphorylated (Homo sapiens, UniProt P00519)
T1 construct: phosphorylated

MAP4K5 = MAP4K5 (Homo sapiens, UniProt Q9Y4K4)
Sequence of MAP4K5 (Q9Y4K4 whole entry): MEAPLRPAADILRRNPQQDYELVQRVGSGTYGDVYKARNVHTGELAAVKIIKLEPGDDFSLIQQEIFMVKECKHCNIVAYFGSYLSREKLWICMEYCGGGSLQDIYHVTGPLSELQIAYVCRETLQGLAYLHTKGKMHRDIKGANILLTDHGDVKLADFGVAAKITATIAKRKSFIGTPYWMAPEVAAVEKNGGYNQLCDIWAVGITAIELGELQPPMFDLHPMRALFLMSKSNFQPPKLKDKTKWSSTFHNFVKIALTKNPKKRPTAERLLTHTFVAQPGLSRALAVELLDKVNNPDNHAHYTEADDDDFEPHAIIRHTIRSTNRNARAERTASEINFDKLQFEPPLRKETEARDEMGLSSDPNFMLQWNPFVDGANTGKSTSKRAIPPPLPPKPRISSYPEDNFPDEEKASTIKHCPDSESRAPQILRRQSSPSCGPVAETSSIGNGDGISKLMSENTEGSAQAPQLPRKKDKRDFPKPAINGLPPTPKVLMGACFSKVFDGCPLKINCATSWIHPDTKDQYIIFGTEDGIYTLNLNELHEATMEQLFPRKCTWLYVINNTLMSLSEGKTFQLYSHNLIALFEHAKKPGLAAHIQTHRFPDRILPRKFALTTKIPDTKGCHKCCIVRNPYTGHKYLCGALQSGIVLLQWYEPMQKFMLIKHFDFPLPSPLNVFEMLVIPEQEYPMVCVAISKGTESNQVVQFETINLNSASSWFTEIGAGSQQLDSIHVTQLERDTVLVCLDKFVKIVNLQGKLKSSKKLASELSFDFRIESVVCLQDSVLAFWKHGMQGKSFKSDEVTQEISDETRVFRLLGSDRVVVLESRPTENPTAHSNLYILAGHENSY

ACVR1B = ACVR1B (Homo sapiens, UniProt P36896)
Sequence of ACVR1B (P36896 whole entry): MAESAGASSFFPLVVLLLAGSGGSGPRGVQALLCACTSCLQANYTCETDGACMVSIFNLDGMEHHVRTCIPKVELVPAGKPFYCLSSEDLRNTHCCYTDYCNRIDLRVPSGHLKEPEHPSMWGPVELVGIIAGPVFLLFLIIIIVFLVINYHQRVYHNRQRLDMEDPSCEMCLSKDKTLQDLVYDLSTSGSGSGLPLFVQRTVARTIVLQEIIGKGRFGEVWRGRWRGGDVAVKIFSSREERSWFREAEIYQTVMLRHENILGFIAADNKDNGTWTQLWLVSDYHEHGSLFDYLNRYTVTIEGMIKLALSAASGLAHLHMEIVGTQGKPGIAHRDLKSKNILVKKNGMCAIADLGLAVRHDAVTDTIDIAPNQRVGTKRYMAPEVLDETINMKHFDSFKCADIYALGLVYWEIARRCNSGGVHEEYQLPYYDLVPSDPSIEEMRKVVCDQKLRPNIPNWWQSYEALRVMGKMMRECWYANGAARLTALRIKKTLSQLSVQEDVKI

FGFR4 = FGFR4 (Homo sapiens, UniProt P22455)
FLT3(K663Q) = FLT3(K663Q) (Homo sapiens, UniProt P36888, K663Q)
MAP4K2 = MAP4K2 (Homo sapiens, UniProt Q12851)
PAK2 = PAK2 (Homo sapiens, UniProt Q13177)
TAK1 = target: T2, TAK1 (Homo sapiens, UniProt O43318)
T2 construct: gene MAP3K7

CAMK1B = target: T3, CAMK1B (Homo sapiens, UniProt Q6P2M8)
T3 construct: gene PNCK

p38-delta = target: T4, p38-delta (Homo sapiens, UniProt O15264)
T4 construct: gene MAPK13

BRSK1 = BRSK1 (Homo sapiens, UniProt Q8TDC3)
MAP3K3 = MAP3K3 (Homo sapiens, UniProt Q99759)
[1] = target: T5, JAK3(JH1domain-catalytic) (Homo sapiens, UniProt P52333)
T5 construct: JH1domain-catalytic

CLK1 = CLK1 (Homo sapiens, UniProt P49759)
PRKR = target: T6, PRKR (Homo sapiens, UniProt P19525)
T6 construct: gene EIF2AK2
T6 sequence (P19525 whole entry): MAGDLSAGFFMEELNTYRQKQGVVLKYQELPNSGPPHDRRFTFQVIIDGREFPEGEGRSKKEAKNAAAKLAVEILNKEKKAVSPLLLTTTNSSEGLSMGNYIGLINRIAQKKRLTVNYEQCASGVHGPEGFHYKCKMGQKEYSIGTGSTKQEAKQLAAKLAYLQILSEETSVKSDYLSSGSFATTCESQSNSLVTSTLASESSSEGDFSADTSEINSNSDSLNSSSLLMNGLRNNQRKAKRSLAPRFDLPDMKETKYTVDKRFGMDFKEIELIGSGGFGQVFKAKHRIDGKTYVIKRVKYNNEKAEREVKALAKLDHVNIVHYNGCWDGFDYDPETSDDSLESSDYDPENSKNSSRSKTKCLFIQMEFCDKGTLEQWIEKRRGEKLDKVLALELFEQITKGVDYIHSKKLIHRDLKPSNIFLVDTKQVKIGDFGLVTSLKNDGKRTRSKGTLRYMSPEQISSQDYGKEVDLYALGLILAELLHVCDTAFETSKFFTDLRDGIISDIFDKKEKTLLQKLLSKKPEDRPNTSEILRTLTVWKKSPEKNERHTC

[2] = target: T7, RSK3(Kin.Dom.1-N-terminal) (Homo sapiens, UniProt Q15349)
T7 construct: gene RPS6KA2; Kin.Dom.1-N-terminal

WEE1 = WEE1 (Homo sapiens, UniProt P30291)
Sequence of WEE1 (P30291 whole entry): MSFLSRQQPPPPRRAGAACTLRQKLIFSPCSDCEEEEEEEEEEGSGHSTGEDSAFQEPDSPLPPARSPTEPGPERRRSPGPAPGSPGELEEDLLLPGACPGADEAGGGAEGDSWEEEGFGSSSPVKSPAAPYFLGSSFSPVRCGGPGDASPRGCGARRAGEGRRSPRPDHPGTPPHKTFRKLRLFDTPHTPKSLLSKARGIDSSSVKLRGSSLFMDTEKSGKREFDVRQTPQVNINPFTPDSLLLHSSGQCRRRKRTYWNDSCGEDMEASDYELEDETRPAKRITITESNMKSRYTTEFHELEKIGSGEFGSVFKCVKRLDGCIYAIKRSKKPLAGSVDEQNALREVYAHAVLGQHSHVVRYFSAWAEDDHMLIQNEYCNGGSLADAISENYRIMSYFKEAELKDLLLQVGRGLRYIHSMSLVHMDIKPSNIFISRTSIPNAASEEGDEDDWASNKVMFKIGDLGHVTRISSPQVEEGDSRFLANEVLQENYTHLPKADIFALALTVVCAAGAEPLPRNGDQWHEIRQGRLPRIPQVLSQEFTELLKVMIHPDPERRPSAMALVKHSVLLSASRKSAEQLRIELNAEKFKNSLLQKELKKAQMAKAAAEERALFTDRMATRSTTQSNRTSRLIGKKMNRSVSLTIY

WNK2 = WNK2 (Homo sapiens, UniProt Q9Y3S1)
Sequence of WNK2 (Q9Y3S1 whole entry): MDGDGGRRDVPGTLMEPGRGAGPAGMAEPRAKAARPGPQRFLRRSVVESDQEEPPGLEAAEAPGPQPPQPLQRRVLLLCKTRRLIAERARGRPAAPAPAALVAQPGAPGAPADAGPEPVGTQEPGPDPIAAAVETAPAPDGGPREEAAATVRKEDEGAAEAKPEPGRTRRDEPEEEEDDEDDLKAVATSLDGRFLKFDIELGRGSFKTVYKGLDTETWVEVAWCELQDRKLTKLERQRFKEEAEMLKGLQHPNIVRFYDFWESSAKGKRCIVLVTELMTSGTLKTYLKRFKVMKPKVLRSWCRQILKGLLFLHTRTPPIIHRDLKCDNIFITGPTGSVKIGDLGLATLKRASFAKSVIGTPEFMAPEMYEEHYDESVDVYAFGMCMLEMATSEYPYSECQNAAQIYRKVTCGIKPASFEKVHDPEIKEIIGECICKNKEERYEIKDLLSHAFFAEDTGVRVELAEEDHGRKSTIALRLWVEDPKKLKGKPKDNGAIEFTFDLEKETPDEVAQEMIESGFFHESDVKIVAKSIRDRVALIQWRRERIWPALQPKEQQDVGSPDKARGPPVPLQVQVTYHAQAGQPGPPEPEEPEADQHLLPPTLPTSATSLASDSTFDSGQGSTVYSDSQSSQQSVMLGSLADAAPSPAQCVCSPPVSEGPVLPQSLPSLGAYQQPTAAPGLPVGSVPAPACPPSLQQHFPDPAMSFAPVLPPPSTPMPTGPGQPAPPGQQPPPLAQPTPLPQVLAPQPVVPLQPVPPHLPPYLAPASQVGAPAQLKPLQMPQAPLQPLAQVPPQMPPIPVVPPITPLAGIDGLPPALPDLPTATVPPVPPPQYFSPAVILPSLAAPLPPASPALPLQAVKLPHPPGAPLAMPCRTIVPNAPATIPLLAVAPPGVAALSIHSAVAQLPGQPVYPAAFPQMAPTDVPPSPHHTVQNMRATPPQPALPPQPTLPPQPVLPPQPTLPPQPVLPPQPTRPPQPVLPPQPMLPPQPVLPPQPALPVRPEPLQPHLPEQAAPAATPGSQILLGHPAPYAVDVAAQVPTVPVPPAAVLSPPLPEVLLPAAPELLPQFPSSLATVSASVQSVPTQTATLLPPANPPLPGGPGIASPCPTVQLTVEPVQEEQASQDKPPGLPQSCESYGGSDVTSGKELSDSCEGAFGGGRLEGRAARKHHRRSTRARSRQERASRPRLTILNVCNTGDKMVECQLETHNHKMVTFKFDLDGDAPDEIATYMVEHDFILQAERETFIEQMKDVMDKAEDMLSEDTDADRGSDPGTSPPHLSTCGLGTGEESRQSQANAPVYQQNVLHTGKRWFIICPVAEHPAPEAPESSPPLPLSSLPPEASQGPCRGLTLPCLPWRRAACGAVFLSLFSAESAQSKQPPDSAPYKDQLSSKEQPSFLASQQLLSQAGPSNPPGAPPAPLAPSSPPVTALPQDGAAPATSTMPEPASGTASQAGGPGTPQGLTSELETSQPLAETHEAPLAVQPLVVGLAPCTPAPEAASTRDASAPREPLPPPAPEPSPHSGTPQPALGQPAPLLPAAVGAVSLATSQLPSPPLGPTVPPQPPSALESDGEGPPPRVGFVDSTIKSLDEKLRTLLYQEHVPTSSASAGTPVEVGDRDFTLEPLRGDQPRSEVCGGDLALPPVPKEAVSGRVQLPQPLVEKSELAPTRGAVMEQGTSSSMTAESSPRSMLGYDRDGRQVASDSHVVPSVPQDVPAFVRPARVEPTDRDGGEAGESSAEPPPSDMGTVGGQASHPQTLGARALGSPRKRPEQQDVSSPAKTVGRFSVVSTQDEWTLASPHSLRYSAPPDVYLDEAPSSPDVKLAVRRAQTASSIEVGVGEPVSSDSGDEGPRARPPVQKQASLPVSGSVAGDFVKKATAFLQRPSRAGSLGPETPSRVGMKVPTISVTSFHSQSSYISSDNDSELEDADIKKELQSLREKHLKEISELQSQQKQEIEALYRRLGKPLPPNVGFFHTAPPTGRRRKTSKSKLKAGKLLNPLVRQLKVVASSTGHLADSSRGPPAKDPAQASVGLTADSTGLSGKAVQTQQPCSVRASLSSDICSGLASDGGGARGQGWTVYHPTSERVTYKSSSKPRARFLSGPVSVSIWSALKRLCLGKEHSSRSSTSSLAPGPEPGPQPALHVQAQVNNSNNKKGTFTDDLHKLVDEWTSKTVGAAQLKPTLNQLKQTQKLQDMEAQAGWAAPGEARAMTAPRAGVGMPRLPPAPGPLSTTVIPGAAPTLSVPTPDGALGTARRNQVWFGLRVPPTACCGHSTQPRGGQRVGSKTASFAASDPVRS

## COc1cc2c(cn1)N(C)C(=O)[C@@H](NC(=O)c1nc3n(n1)[C@H](c1ccccc1)CC3)CC2 [GNE684, (S)-N-((S)-7-methoxy-1-methyl-2-oxo-2,3,4,5-tetrahydro-1H-pyrido[3,4-b]azepin-3-yl)-5-phenyl-6,7-dihydro-5H-pyrrolo[1,2-b][1,2,4]triazole-2-carboxamide]
CSNK2A1
  remaining binding at 10 µM: 93%
TNIK
  remaining binding at 10 µM: 67%
DYRK2
  remaining binding at 10 µM: 87%
ABL1-phosphorylated
  remaining binding at 10 µM: 84%
MAP4K5
  remaining binding at 10 µM: 91%
ACVR1B
  remaining binding at 10 µM: 93%
FGFR4
  remaining binding at 10 µM: 88%
FLT3(K663Q)
  remaining binding at 10 µM: 100%
MAP4K2
  remaining binding at 10 µM: 100%
PAK2
  remaining binding at 10 µM: 100%
TAK1
  remaining binding at 10 µM: 100%
CAMK1B
  remaining binding at 10 µM: 100%
p38-delta
  remaining binding at 10 µM: 92%
BRSK1
  remaining binding at 10 µM: 100%
MAP3K3
  remaining binding at 10 µM: 98%
[1]
  remaining binding at 10 µM: 97%
CLK1
  remaining binding at 10 µM: 90%
PRKR
  remaining binding at 10 µM: 100%
[2]
  remaining binding at 10 µM: 92%
WEE1
  remaining binding at 10 µM: 69%
WNK2
  remaining binding at 10 µM: 83%
